Assay [1] has as its system cytokine production in human white blood cells (hWBC). Description: In vitro LPS/R848/CpG-induced cytokine production assay in hWBC. Type of assay: cell-based. The following applies: WBC. The protocol:
Compounds of the present invention were also studied in in vitro LPS/R848/CpG-induced cytokine production assays. Exemplary protocols follow.
Whole Blood (LPS): 13 mL of whole blood solution was prepared by combining whole blood in no serum medium with a ratio of 1:1. Cells were seeded in a 96-well plate with 130 ul/well of the cell suspension according to the plate map. 9 ul of 30 mM compound solution was added into the wells in the assigned rows, then serial solutions with 4× dilutions were made. That is, add 9 uL of 100% DMSO into each of the rest wells and take 3 uL of compound solution from the one-step higher concentration solution and mix well with the DMSO. For the second compound master plate, 196 uL of the growth medium (no serum media) were added into each of the wells and 4 uL of the compound solution from the first compound master plate was added and mixed with the media. Cells were treated for 0.5 h by adding 20 uL of the compound and the control solutions prepared in the second master plate to each well according to the plate map. Cells were stimulated with a) 0.1 ug/mL of LPS overnight for whole blood assay; b) 0.01 ug/mL of LPS overnight for hWBC assay. Plates were sealed with sealing films and the plates were centrifuged at 3000 rpm at 4 degrees C. for 5 min. The supernatants were transferred, and 100 ul of working Capture antibody solution was added to each well. The plates were sealed and incubated overnight at RT. IL-6, IFN-α or TNF-α detection antibody labeled with biotin: Added 100 uL of the Detection Antibody solution to each well. Covered the plate and incubated for 2 h at RT. Added 100 uL of Streptavidin-HRP solution to each well. Covered the plate and incubate for 20 min at RT in dark. Added 100 uL of Substrate Solution to each well. Incubated for 20 min at RT in dark. Added 50 uL of Stop Solution to each well. Gently tapped the plate to ensure thorough mixing. Determined the optical density of each well immediately, using a microplate reader set to 450 nm and also read at 540 nm or 570 nm for correction if wavelength correction is not available.

Assay [2] deals with TNFα and IL8 production in THP-1 cells. In words: LPS induced cytokine (TNFα and IL8) production assay in THP-1 cells. The following applies: 300 ng/mL LPS. Format: cell-based. The protocol:
Provided compounds were also assayed in an LPS (Lipopolysacharide) or R848 (TLR-7 agonist) induced cytokine (TNFα and IL8) production assay in THP-1 cells, human white blood cells (hWBC), and whole blood. The exemplary protocol for this assay in THP-1 cells was as follows below.
THP-1 cells from ATCC (TIB-202) were cultured in RPMI Medium 1640 (Invitrogen, Cat No. A10491-01), 10% fetal bovine serum (Invitrogen, Cat No. 10099141, Lot No. 8172882) containing 100 U/mL Penicillin, 100 μg/mL streptomycin (Invitrogen, Cat No. 15140-122), and 50 uM 2-Mercaptoethanol (Invitrogen, Cat No. 21985023). LPS-EK ultra pure (Invivogen, Cat No. tlrl-peklps) was used to induce IL8 and TNFα production, that was detected in the cell culture supernatant by IL8 HTRF kit (Cisbio, Cat No. 62IL8PEB) and TNFα HTRF kit (Cisbio, Cat No. 62TNFPEB), as per manufacturer instructions. Cells were cultured in 96 well assay plates at 100,000 cells per well, and compounds diluted in final 0.3% DMSO were pre-incubated with cells for 1 hour prior to stimulation with 300 ng/mL LPS. Cytokine production in cell supernatant was measured at 5 hours for TNFα and IL8 production, and for 16 hours for IL8 production and assessment of cell viability.
The compound numbers correspond to the compound numbers in Table 1. […] “NA” stands for “not assayed.”

Setting [3] is: Homo sapiens, CPG 0.5 uM, overnight, read-out: IFN-α production IC50.
Where [4] appears, read: Homo sapiens, LPS 0.1 uM, overnight, read-out: TNF-α production IC50.
Setting [5] is: Homo sapiens, R848 1 uM, 5 h, read-out: TNF-α production IC50.
Setting [6] is: Homo sapiens, 5 hours, read-out: TNFα production IC50.
The mark [7] stands for this setting: Homo sapiens, 16 hours, read-out: IL8 (16 h) production IC50.

pIC50: −log10 of the molar value. Where two headings read alike, the source gives them in different places.

By pIC50 is commonly meant the IC50 on a negative log10 scale, so that one unit is a factor of ten. As to “2-methyl-N5-(1-methyl-1H-pyrazol-4-yl)-N7-((1r,4r)-4-morpholinocyclohexyl)thiazolo[5,4-d]pyrimidine-5,7-diamine [Compound I-24]”, the negative logarithm of the IC50 (pIC50) is at least 6.60 in assay [1] (CPG 0.5 uM, overnight, read-out: IFN-α production IC50); at least 6.60 in assay [1] (LPS 0.1 uM, overnight, read-out: TNF-α production IC50); at least 6.60 in assay [1] (R848 1 uM, 5 h, read-out: TNF-α production IC50); at most 6.30 in assay [2] (5 hours, read-out: TNFα production IC50); 6.30 to 6.60 in assay [2] (16 hours, read-out: IL8 (16 h) production IC50).
`CCc1nc2c(N[C@H]3CC[C@H](N4CCOCC4)CC3)nc(Nc3cnn(C)c3)nc2s1` [Compound I-7, 2-ethyl-N5-(1-methyl-1H-pyrazol-4-yl)-N7-((1r,4r)-4-morpholinocyclohexyl)-thiazolo[5,4-d]pyrimidine-5,7-diamine]: the pIC50 in assay [1] (setting [3]) was at least 6.60; in assay [1] (setting [4]) it was 6.00 to 6.60; in assay [1] (setting [5]) it was 6.00 to 6.60; in assay [2] (setting [6]) it was at least 6.60; in assay [2] (setting [7]), at least 6.60.
For the compound `CCc1nc2c(N[C@H]3CC[C@H](N4CCOCC4)CC3)nc(Nc3cnn(C4CCOCC4)c3)nc2s1` [Compound I-9, 2-ethyl-5-N-[1-(oxan-4-yl)-1H-pyrazol-4-yl]-7-N—[trans-4-(morpholin-4-yl)cyclohexyl]-[1,3]thiazolo[5,4-d]pyrimidine-5,7-diamine], the pIC50 in assay [1] (setting [3]), in assay [1] (setting [4]), in assay [1] (setting [5]), in assay [2] (setting [6]) and in assay [2] (setting [7]) was at least 6.60 each time.
